Results as given in patent publication US7553861B2, “Dipeptidyl peptidase-IV inhibitors” (Alantos Pharmaceuticals Holding, Inc., priority 2005, dated 2009).

Target: T1, DPP-IV (Homo sapiens, UniProt P27487)
T1 construct: purchased R&D Systems GmbH, Germany
Assay: Assay for determining DP-IV inhibition (fluorometric, Gly-Pro-AMC substrate)
Format: biochemical
Conditions: Inhibition of DPP-IV, K(i) calculated from IC(50) with IC(50)=K(i)(1+[S]/Km), pH 8.0
Method: The inhibitory activity of compounds against DPP-IV can be determined by in vitro assay systems, which are themselves well established in the art. The assay results given in Table 5 were obtained according to the following method, employing a modified version of the assay described by Leiting et al., in an article entitled “Catalytic properties and inhibition of proline-specific dipeptidyl peptidases II, IV and VII” in Biochem. J. Vol. 371, pages 525-532 (2003):
DPP-IV activity was determined fluorometrically with Gly-Pro-AMC (where AMC stands for 7-amido-4-methylcoumarin, Bachem AG, Switzerland) as substrate. The reaction mixture contained 10 μl of 1 ng/μl DPP-IV (R&D Systems GmbH, Germany) and 80 μl of 25 mM Tris/HCl buffer, pH 8.0. Compounds were supplied as DMSO stock solutions and diluted in assay buffer to a maximal DMSO concentration of 1% in the assay. Prior to start of the reaction, the mixture was incubated for 30 min at room temperature. The reaction was started by addition of 10 μl of 100 μM substrate solution.
The fluorescence intensity was measured at excitation and emission wavelengths of 355 and 460 nm, respectively, in a FluoStar Galaxy Multiwell Plate (BMG Labtech, Germany). Fluorescence was determined 3 and 4 minutes after start of reaction and increase in fluorescence was used for determination of enzymatic activity. IC(50) values of tested compounds were determined via plotting enzymatic activity versus concentration of test compound and determining the concentration of test compound which yields a 50% inhibition of enzymatic activity.
K(i) values were calculated using the Michaelis-Menten equation for competitive inhibition: IC(50)=K(i)(1+[S]/Km)

T1 sequence (P27487 whole entry): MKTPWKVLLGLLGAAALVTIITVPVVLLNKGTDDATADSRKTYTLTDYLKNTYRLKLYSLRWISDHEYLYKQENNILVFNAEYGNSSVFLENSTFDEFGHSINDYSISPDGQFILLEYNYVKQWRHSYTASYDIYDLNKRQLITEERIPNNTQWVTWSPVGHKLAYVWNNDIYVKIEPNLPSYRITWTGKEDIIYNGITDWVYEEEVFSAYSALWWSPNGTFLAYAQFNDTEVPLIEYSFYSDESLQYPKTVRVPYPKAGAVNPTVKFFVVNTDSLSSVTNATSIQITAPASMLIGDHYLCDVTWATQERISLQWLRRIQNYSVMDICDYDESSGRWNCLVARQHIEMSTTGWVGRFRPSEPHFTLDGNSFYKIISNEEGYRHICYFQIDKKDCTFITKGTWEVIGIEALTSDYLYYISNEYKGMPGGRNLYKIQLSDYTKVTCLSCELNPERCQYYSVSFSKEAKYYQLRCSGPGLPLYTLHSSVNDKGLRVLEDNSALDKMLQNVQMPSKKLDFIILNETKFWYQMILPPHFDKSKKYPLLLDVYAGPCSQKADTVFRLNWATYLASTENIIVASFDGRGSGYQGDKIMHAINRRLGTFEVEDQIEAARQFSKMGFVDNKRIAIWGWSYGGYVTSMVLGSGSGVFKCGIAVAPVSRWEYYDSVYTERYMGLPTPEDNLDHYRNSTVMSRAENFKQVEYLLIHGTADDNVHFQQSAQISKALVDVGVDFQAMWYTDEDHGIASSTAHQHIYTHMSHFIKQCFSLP

Row | Compound | Ki
1 | N#C[C@@H]1CCCN1C(=O)CNCCNC1c2ccccc2CCc2ccccc21 [Example 1] | 51 to 500 nM
2 | N#C[C@@H]1CCCN1C(=O)CNC1c2ccccc2CCc2ccccc21 [Example 2] | 500 to 30000 nM
3 | CC(C)(CNC1c2ccccc2CCc2ccccc21)NCC(=O)N1CCC[C@H]1C#N [Example 3] | 500 to 30000 nM
4 | N#C[C@@H]1CCCN1C(=O)CNCC1c2ccccc2CCc2ccccc21 [Example 4] | 500 to 30000 nM
5 | N#C[C@@H]1CCCN1C(=O)CNCC(=O)N1c2ccccc2CCc2ccccc21 [Example 5] | 500 to 30000 nM
6 | N#C[C@@H]1CCCN1C(=O)CNCCN1c2ccccc2C=Cc2ccccc21 [Example 7] | 51 to 500 nM
7 | N#C[C@@H]1CCCN1C(=O)CNCCCN1c2ccccc2CCc2ccccc21 [Example 9] | 51 to 500 nM
8 | N#C[C@@H]1CCCN1C(=O)CNCCC1(O)c2ccccc2CCc2ccccc21 [Example 10] | 51 to 500 nM
9 | N#C[C@@H]1CCCN1C(=O)CNCC=C1c2ccccc2CCc2ccccc21 [Example 11] | 51 to 500 nM
10 | N#C[C@@H]1CCCN1C(=O)CNC1CCN(C2c3ccccc3CCc3ccccc32)CC1 [Example 12] | 51 to 500 nM
11 | N#C[C@@H]1CCCN1C(=O)CNC1CCN(C2c3ccccc3CCc3ccccc32)C1 (stereo partly drawn) [Example 13] | 51 to 500 nM
12 | N#C[C@@H]1CCCN1C(=O)CNC1CN(C2c3ccccc3CCc3ccccc32)C1 [Example 14] | 500 to 30000 nM
13 | N#C[C@@H]1CCCN1C(=O)CNC1c2ccc(Cl)cc2CCc2cccnc21 (stereo partly drawn) [Example 15] | 500 to 30000 nM
14 | N#C[C@@H]1CCCN1C(=O)CNCCC1(C#N)c2ccccc2CCc2ccccc21 [Example 16] | 51 to 500 nM
15 | N#C[C@@H]1CCCN1C(=O)CNCCC1(C(N)=O)c2ccccc2CCc2ccccc21 [Example 17] | 6 to 50 nM
16 | C[C@@H](CC1(C(N)=O)c2ccccc2CCc2ccccc21)NCC(=O)N1CCC[C@H]1C#N [Example 18] | < 6 nM
17 | C[C@H](CC1(C(N)=O)c2ccccc2CCc2ccccc21)NCC(=O)N1CCC[C@H]1C#N [Example 19] | 6 to 50 nM
18 | N#C[C@@H]1CCCN1C(=O)CNCCNC1c2ccc(Cl)cc2CCc2cccnc21 (stereo partly drawn) [Example 20] | 51 to 500 nM
19 | N#C[C@@H]1CCCN1C(=O)CNCCNC1c2ccccc2CCc2cccnc21 (stereo partly drawn) [Example 21] | 51 to 500 nM
20 | N#C[C@@H]1CCCN1C(=O)CNCCC1(C(N)=O)c2ccc(C(N)=O)cc2CCc2ccc(F)cc21 (stereo partly drawn) [Example 22] | < 6 nM
21 | N#C[C@@H]1CCCN1C(=O)CNCCC1(c2nn[nH]n2)c2ccccc2CCc2ccccc21 [Example 23] | 6 to 50 nM
22 | N#C[C@@H]1CCCN1C(=O)CNCCC1(c2nn[nH]n2)c2ccc(F)cc2CCc2ccc(F)cc21 (stereo partly drawn) [Example 24] | < 6 nM
23 | N#C[C@@H]1CCCN1C(=O)CNCCC1(c2nn[nH]n2)c2ccc(Cl)cc2CCc2cc(Cl)ccc21 [Example 25] | 6 to 50 nM
24 | C[C@@H](CN1C[C@@H]2C[C@H]1C(=O)N2Cc1cccc(F)c1)NCC(=O)N1CCC[C@H]1C#N [Example 26] | 51 to 500 nM
25 | C[C@@H](CC1(c2nn[nH]n2)c2ccc(C(N)=O)cc2CCc2cc(C(N)=O)ccc21)NCC(=O)N1CCC[C@H]1C#N [Example 27] | < 6 nM
26 | CNC(=O)c1ccc2c(c1)CCc1cc(C(=O)NC)ccc1C2(C[C@H](C)NCC(=O)N1CCC[C@H]1C#N)c1nn[nH]n1 [Example 28] | < 6 nM
27 | C[C@@H](CC1(c2nn[nH]n2)c2ccc(C(=O)N(C)C)cc2CCc2cc(C(=O)N(C)C)ccc21)NCC(=O)N1CCC[C@H]1C#N [Example 29] | < 6 nM
28 | CCNC(=O)c1ccc2c(c1)CCc1cc(C(=O)NCC)ccc1C2(C[C@H](C)NCC(=O)N1CCC[C@H]1C#N)c1nn[nH]n1 [Example 30] | < 6 nM
29 | CC(C)NC(=O)c1ccc2c(c1)CCc1cc(C(=O)NC(C)C)ccc1C2(C[C@H](C)NCC(=O)N1CCC[C@H]1C#N)c1nn[nH]n1 [Example 31] | 6 to 50 nM
30 | C[C@@H](CC1(c2nn[nH]n2)c2ccc(C(=O)N3CCC3)cc2CCc2cc(C(=O)N3CCC3)ccc21)NCC(=O)N1CCC[C@H]1C#N [Example 32] | < 6 nM
